pIC50: −log10 of the molar value. ≈ marks a conversion by molar mass, not a printed value.
Columns and labels:
[1] = Kinetic solubility in HEPES buffer containing 5% DMSO at pH 8 incubated for 20 hrs by NMR analysis; type: physicochemical; details: read-out: Kinetic_solubility
[2] = molecular target: T1, B-cell lymphoma 6 protein (Homo sapiens, UniProt P41182)
Description: Inhibition of recombinant His-tagged human BCL6 expressed in Escherichia coli BL21 AI cell incubated for 2 hrs by TR-FRET assay

[3] = molecular target: BCL-6/NCOR2 (Homo sapiens, UniProt P41182)
Description: Inhibition of recombinant human Nanoluc-tagged BCL6/Halo-tagged SMRT transfected in human HEK293T cells assessed as reduction in BCL6/SMRT interaction incubated for 6 hrs by NANOBRET assay

[4] = molecular target: T1, B-cell lymphoma 6 protein; remark: listed apart in the source
Description: Induction of BCL6 degradation in human SUDHL-4 cells incubated for 2 hrs by immunofluorescence analysis

[5] = Kinetic solubility in PBS buffer containing 1% DMSO at pH 7.4 incubated for 2 hrs by HPLC analysis; type: physicochemical; details: read-out: Kinetic_solubility
[6] = Metabolic stability in CD-1 mouse liver microsomes assessed as intrinsic clearance at 1 uM measured upt0 30 mins by LC-MS/MS analysis; type: ADME, Microsome; details: 0.5 h
[7] = Lipophilicity, log D of compound at pH 7.4; type: physicochemical; details: buffer
[8] = test system: OCI-Ly1; assay: Antiproliferative activity agianst human OCI-LY1 cells assessed as growth inhibition incubated for 14 days by CellTiter Glo reagent based assay
[9] = test system: OCI-Ly3; assay: Antiproliferative activity agianst human OCI-LY3 cells assessed as growth inhibition incubated for 14 days by CellTiter Glo reagent based assay
[10] = test system: SUD4; assay: Antiproliferative activity agianst human SUDHL4 cells assessed as growth inhibition incubated for 14 days by CellTiter Glo reagent based assay; type: functional; details: SU-DHL-4, […]
[11] = molecular target: T1, B-cell lymphoma 6 protein; assay: Induction of BCL6 degradation in human SUDHL-4 cells incubated for 4 hrs by Western blot analysis; type: cell-based
[12] = molecular target: T1, B-cell lymphoma 6 protein; assay: Induction of BCL6 degradation in human OCI-LY1 cells incubated for 4 hrs by Western blot analysis; type: cell-based
[13] = Permeability of compound by PAMPA assay; type: ADME
[14] = molecular target: T1, B-cell lymphoma 6 protein; remark: listed apart in the source
Description: Induction of BCL6 degradation in human KARPAS422 cells incubated for 2 hrs by MSD electrochemiluminescent immunoassay

[15] = molecular target: T1, B-cell lymphoma 6 protein; details: oci-ly1
Description: Induction of BCL6 degradation in human OCI-LY1 cells incubated for 2 hrs by MSD electrochemiluminescent immunoassay

SMILES | solubility kinetic at 20 h [1] | pIC50 [2] | DC50 [4] | further results
CC[C@H](O)Cn1c(=O)n(C)c2ccc(Nc3ccnc(Cl)c3C#N)cc21 | 313 µM (≈ 116 µg/mL) | 5.34 | – | –
Cn1c(=O)n(CCC(C)(C)O)c2cc(Nc3nc(N4CCOCC4)ncc3Cl)ccc21 | 370 µM (≈ 165 µg/mL) | 6.57 | – | pIC50 [3]: 5.64
Cn1c(=O)n(CCC(C)(C)O)c2cc(Nc3nc(N4CCC(C(F)(F)F)CC4)ncc3Cl)ccc21 | 22 µM (≈ 11.3 µg/mL) | 6.02 | > 10000 nM | –
C[C@H](O)CCn1c(=O)n(C)c2ccc(Nc3ccnc(Cl)c3C#N)cc21 | 251 µM (≈ 93.3 µg/mL) | – | – | –
CCC(O)Cn1c(=O)n(C)c2ccc(Nc3ccnc(Cl)c3C#N)cc21 (racemic) | 298 µM (≈ 111 µg/mL) | 5.27 | – | –
Cn1c(=O)n(CCC(C)(C)O)c2cc(Nc3ccncc3Cl)ccc21 | 526 µM (≈ 190 µg/mL) | 6.00 | – | –
Cn1c(=O)n(CCC(C)(C)O)c2cc(Nc3nc(N4C5CCC4CC(F)(F)C5)ncc3Cl)ccc21 | < 30 µM | – | – | –
Cn1c(=O)n(C)c2cc(Nc3ccnc(Cl)c3C#N)ccc21 | < 30 µM | – | – | solubility kinetic at 2 h [5]: 16 µM (≈ 5.02 µg/mL)
Cn1c(=O)n(C)c2cc(Nc3ncccc3C#N)ccc21 | 300 µM (≈ 83.8 µg/mL) | – | – | –
Cn1c(=O)n(CCC(C)(C)O)c2cc(Nc3nc(N4CCCC(CO)C4)ncc3Cl)ccc21 (centres undefined) | 442 µM (≈ 210 µg/mL) | 6.89 | 450 nM | CLH [6]: 370 µL/min/mg; logD [7]: 2.1
Cn1c(=O)n(CCC(C)(C)O)c2cc(Nc3nc(-n4cccn4)ncc3Cl)ccc21 | 146 µM (≈ 62.5 µg/mL) | 6.15 | > 10000 nM | pIC50 [3]: 5.23
CC1CCCN(c2ncc(Cl)c(Nc3ccc4c(c3)n(CCC(C)(C)O)c(=O)n4C)n2)C1 (centres undefined) | 44 µM (≈ 20.2 µg/mL) | 6.19 | 520 nM | CLH [6]: 2210 µL/min/mg; logD [7]: 4.2; pIC50 [3]: 4.89
N#Cc1c(NCC2CC2)ccnc1Cl | 300 µM (≈ 62.3 µg/mL) | – | – | –
C[C@@H]1CN(c2ncc(Cl)c(Nc3ccc4c(c3)n(CCC(C)(C)O)c(=O)n4C)n2)C[C@H](C)N1C | 343 µM (≈ 167 µg/mL) | 6.72 | > 10000 nM | pIC50 [3]: 5.81
Cn1c(=O)n(CCC(C)(C)O)c2cc(Nc3nc(N4CC5CCC(C4)C5(F)F)ncc3Cl)ccc21 | 22 µM (≈ 11.2 µg/mL) | 6.15 | > 10000 nM | –
Cc1cc(C)n(-c2ncc(Cl)c(Nc3ccc4c(c3)n(CCC(C)(C)O)c(=O)n4C)n2)n1 | 404 µM (≈ 184 µg/mL) | 6.59 | > 10000 nM | pIC50 [3]: 5.74
Cn1c(=O)n(CCC(C)(C)O)c2cc(Nc3nc(N4CCC(F)(F)C(CO)C4)ncc3Cl)ccc21 (centres undefined) | 294 µM (≈ 150 µg/mL) | – | – | logD [7]: 2.5; GI50 [8]: 500 nM; GI50 [9]: 2900 nM; GI50 [10]: 410 nM
CCCCn1c(=O)n(C)c2ccc(Nc3ccnc(Cl)c3C#N)cc21 | 53 µM (≈ 18.9 µg/mL) | 5.18 | – | –
Cn1c(=O)n(C)c2cc(Nc3cc(SCc4ccccc4)ncn3)ccc21 | < 30 µM | – | – | –
Cc1cc(C)n(-c2cc(Nc3ccc4c(c3)n(CCC(C)(C)O)c(=O)n4C)c(Cl)cn2)n1 | 135 µM (≈ 61.4 µg/mL) | 6.10 | > 10000 nM | pIC50 [3]: 5.34
Cn1c(=O)n(CCC(C)(C)O)c2cc(Nc3nc(Cl)ncc3Cl)ccc21 | 361 µM (≈ 143 µg/mL) | – | – | –
CC[C@@H](O)Cn1c(=O)n(C)c2ccc(Nc3ccnc(Cl)c3C#N)cc21 | 307 µM (≈ 114 µg/mL) | 5.35 | – | –
Cn1ccnc1-c1ncc(Cl)c(Nc2ccc3c(c2)n(CCC(C)(C)O)c(=O)n3C)n1 | 113 µM (≈ 49.9 µg/mL) | 6.32 | > 10000 nM | pIC50 [3]: 5.34

SMILES | solubility kinetic at 20 h [1] | pIC50 [2] | DC50 [4] | further results
Cn1c(=O)n(CCC(C)(C)O)c2cc(Nc3nc(N4CCCCC4)ncc3Cl)ccc21 | 70 µM (≈ 31.1 µg/mL) | 6.00 | – | –
Cc1nc(C)c(-c2ncc(Cl)c(Nc3ccc4c(c3)n(CCC(C)(C)O)c(=O)n4C)n2)s1 | < 30 µM | 5.85 | > 10000 nM | –
Cn1c(=O)n(CCC(C)(C)O)c2cc(Nc3ncnc(Cl)c3Cl)ccc21 | 344 µM (≈ 136 µg/mL) | 5.68 | – | –
C[C@@H]1C[C@H](C)CN(c2cc(Nc3ccc4c(c3)n(CCC(C)(C)O)c(=O)n4C)c(Cl)cn2)C1 | 12 µM (≈ 5.66 µg/mL) | 5.46 | 1800 nM | –
C[C@@H]1C[C@H](C)CN(c2ncc(Cl)c(Nc3ccc4c(c3)n(CCC(C)(C)O)c(=O)n4C)n2)C1 | < 30 µM | – | – | CLH [6]: 2440 µL/min/mg; logD [7]: 4.7; Activity [11]: Dose-dependent effect; GI50 [8]: 280 nM; GI50 [9]: 3100 nM; Activity [12]: Dose-dependent effect; GI50 [10]: 350 nM; solubility kinetic at 2 h [5]: 6 µM (≈ 2.84 µg/mL); permeability [13]: 36 ×10⁻⁶ cm/s
CC1CN(c2ncc(Cl)c(Nc3ccc4c(c3)n(CCC(C)(C)O)c(=O)n4C)n2)CCC1(F)F (centres undefined) | 24 µM (≈ 11.9 µg/mL) | 6.48 | 180 nM | CLH [6]: 66 µL/min/mg; logD [7]: 3.9
CN(C)c1ncc(Cl)c(Nc2ccc3c(c2)n(CCC(C)(C)O)c(=O)n3C)n1 | 223 µM (≈ 90.3 µg/mL) | 5.92 | – | –
C[C@@H](O)CCn1c(=O)n(C)c2ccc(Nc3ccnc(Cl)c3C#N)cc21 | 308 µM (≈ 115 µg/mL) | – | – | –
C[C@@H]1CN(c2cc(Nc3ccc4c(c3)n(CCC(C)(C)O)c(=O)n4C)c(Cl)cn2)C[C@H](C)O1 | 83 µM (≈ 39.3 µg/mL) | 6.03 | – | pIC50 [3]: 5.30
Cn1c(=O)n(CCC(C)(C)O)c2cc(Nc3nc(N4CCCC(C(F)(F)F)C4)ncc3Cl)ccc21 (centres undefined) | < 30 µM | 6.40 | 750 nM | CLH [6]: 630 µL/min/mg; logD [7]: 4.2
COCC1CN(c2ncc(Cl)c(Nc3ccc4c(c3)n(CCC(C)(C)O)c(=O)n4C)n2)CCC1(F)F (centres undefined) | 72 µM (≈ 37.8 µg/mL) | – | 440 nM | CLH [6]: > 1000 µL/min/mg; logD [7]: 3.5
N#Cc1c(NCc2ccccc2)ccnc1Cl | 60 µM (≈ 14.6 µg/mL) | – | – | –
CCC(C#N)Cn1c(=O)n(C)c2ccc(Nc3ccnc(Cl)c3C#N)cc21 (centres undefined) | < 30 µM | – | – | solubility kinetic at 2 h [5]: 9.2 µM (≈ 3.5 µg/mL)
Cn1c(=O)n(CCC(C)(C)O)c2cc(Nc3ccnc(Cl)c3Cl)ccc21 | 251 µM (≈ 99.2 µg/mL) | 5.85 | – | –
Cn1c(=O)n(CCC(C)(C)O)c2cc(Nc3ccnc(Cl)c3C#N)ccc21 | < 30 µM | – | – | solubility kinetic at 2 h [5]: 25 µM (≈ 9.65 µg/mL)
Cn1c(=O)n(CCC(C)(C)O)c2cc(Nc3nc(N4CCCC(C#N)C4)ncc3Cl)ccc21 (centres undefined) | 330 µM (≈ 155 µg/mL) | 6.41 | > 10000 nM | –
Cc1ccnn1-c1ncc(Cl)c(Nc2ccc3c(c2)n(CCC(C)(C)O)c(=O)n3C)n1 | 420 µM (≈ 186 µg/mL) | 6.37 | > 10000 nM | pIC50 [3]: 5.57
C[C@@H]1CN(c2ncc(Cl)c(Nc3ccc4c(c3)n(CCC(C)(C)O)c(=O)n4C)n2)C[C@H](C)O1 | < 30 µM | 6.82 | > 10000 nM | CLH [6]: 104 µL/min/mg; pIC50 [3]: 5.75; solubility kinetic at 2 h [5]: 95 µM (≈ 45.1 µg/mL)
Cn1c(=O)n(CCC(C)(C)O)c2cc(Nc3c(Cl)cncc3Cl)ccc21 | 126 µM (≈ 49.8 µg/mL) | 4.43 | – | –
CSc1ncc(Cl)c(Nc2ccc3c(c2)n(CCC(C)(C)O)c(=O)n3C)n1 | 337 µM (≈ 137 µg/mL) | 6.17 | – | –
Cc1ccn(-c2ncc(Cl)c(Nc3ccc4c(c3)n(CCC(C)(C)O)c(=O)n4C)n2)n1 | 253 µM (≈ 112 µg/mL) | 6.40 | > 10000 nM | pIC50 [3]: 5.60
Cn1c(=O)n(CCC(C)(C)O)c2cc(Nc3nc(N4CCC(F)(F)CC4)ncc3Cl)ccc21 | 66 µM (≈ 31.7 µg/mL) | 6.51 | – | CLH [6]: 36 µL/min/mg; logD [7]: 3.4; DC50 [14]: 290 nM; GI50 [8]: 500 nM; GI50 [9]: 2600 nM; DC50 [15]: 180 nM
